Series [1] addresses T1, 5-hydroxytryptamine receptor 2C (Homo sapiens) (UniProt P28335).
T1 sequence (whole entry): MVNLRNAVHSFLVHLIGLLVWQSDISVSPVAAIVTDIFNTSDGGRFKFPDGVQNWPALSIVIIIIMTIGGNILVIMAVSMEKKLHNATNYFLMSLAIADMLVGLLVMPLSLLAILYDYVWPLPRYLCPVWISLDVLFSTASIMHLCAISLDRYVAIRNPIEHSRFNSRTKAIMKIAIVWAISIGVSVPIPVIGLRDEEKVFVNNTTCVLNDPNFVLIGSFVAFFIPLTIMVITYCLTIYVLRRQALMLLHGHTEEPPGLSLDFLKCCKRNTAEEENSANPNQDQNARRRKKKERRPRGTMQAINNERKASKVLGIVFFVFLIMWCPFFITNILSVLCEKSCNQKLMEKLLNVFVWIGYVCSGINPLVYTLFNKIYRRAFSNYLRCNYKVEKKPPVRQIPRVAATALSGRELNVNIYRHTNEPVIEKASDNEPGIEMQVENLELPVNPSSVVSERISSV
Nature of the series: (§1) Agonist activity at Homo sapiens (human) 5-HT2C receptor assessed as 5-HT-induced calcium mobilization by cell based assay. The series is classed as functional. A general note: Calcium assays in cells follow changes in intracellular calcium, usually with a dye or a luminescent sensor.

Series [2] addresses T2, 5-hydroxytryptamine receptor 2C (Homo sapiens, UniProt P28335).
T2 sequence (P28335 whole entry): T1 sequence (whole entry)
The description is as §1. The series is classed as functional.

In series [3] the test system is Mus musculus. Briefly: Anticonvulsant activity in ip dosed Mus musculus (mouse) assessed as inhibition of maximal electroshock-induced seizure. The series is classed as functional. As to conditions: for ED50: Mus musculus, ip.
Series [4] can be described thus: Toxicity in ip dosed maximal electroshock-induced seizure Mus musculus (mouse) model. The series is classed as organism-based. As to conditions: in vivo. A general note: Protection in the maximal electroshock model is a classic sign of anticonvulsant action.
Series [5] deals with Mus musculus. Briefly: Protective index, ratio of TD50 for ip dosed Mus musculus (mouse) to ED50 for ip dosed Mus musculus (mouse) assessed as inhibition of maximal electroshock-induced seizure. The series is classed as functional.
Series [6] is filed under the species Mus musculus. Nature of the series: Protective index, ratio of TD50 for Mus musculus (mouse) to […] for Mus musculus (mouse) assessed as inhibition of maximal electroshock-induced seizure. The series is classed as functional.
A short description of series [7]: Oral bioavailability in Rattus norvegicus (rat). It counts as ADME, organism-based. As to conditions: in vivo.
Series [8] concerns Rattus norvegicus. Nature of the series: Anticonvulsant activity in po dosed Rattus norvegicus (rat) assessed as inhibition of maximal electroshock-induced seizure after 4 hr. The series is classed as functional.
Series [9] has as its system Rattus norvegicus. Briefly: Protective index, ratio of TD50 for po dosed Rattus norvegicus (rat) to ED50 for anticonvulsant activity in po dosed rat assessed as inhibition of maximal electroshock-induced seizure. It counts as functional.
The nature of series [10]: Toxicity in po dosed maximal electroshock-induced seizure Rattus norvegicus (rat) model. As to conditions: in vivo. The series is classed as organism-based.
Series [11] deals with T2, 5-hydroxytryptamine receptor 2C. Briefly: Agonist activity at Homo sapiens (human) 5-HT2C receptor assessed as calcium mobilization by cell based assay. The series is classed as functional.
In series [12] the test system is Rattus norvegicus. Briefly: Anticonvulsant activity in po dosed Rattus norvegicus (rat) assessed as inhibition of maximal electroshock-induced seizure after 5 hr. The series is classed as functional.
Series [13] relates to Mus musculus. Nature of the series: Anticonvulsant activity in ip dosed Mus musculus (mouse) assessed as inhibition of maximal electroshock-induced seizure after 1 hr. It counts as functional.
The test system of series [14] is Rattus norvegicus. Briefly: Protective index, ratio of TD50 for ip dosed Rattus norvegicus (rat) to ED50 for ip dosed rat assessed as inhibition of maximal electroshock-induced seizure. It counts as functional.
Series [15] relates to Rattus norvegicus. Nature of the series: Anticonvulsant activity in ip dosed Rattus norvegicus (rat) assessed as inhibition of maximal electroshock-induced seizure. The series is classed as functional.
For series [16], the system named is Rattus norvegicus. Nature of the series: Anticonvulsant activity in ip dosed Rattus norvegicus (rat) assessed as inhibition of subcutaneous pentylene tetrazole-induced seizure. The series is classed as functional.
In series [17] the test system is Mus musculus. Briefly: Anticonvulsant activity in ip dosed Mus musculus (mouse) assessed as inhibition of subcutaneous pentylene tetrazole-induced seizure. The series is classed as functional.
In series [18] the test system is Mus musculus. Briefly: Anticonvulsant activity in ip dosed Mus musculus (mouse) assessed as inhibition of subcutaneous metrazol-induced seizure. The series is classed as functional.
Series [19] deals with Rattus norvegicus. Nature of the series: Anticonvulsant activity in po dosed Rattus norvegicus (rat) assessed as inhibition of maximal electroshock-induced seizure after 1 hr. The series is classed as functional.
In series [20] the target is 5-hydroxytryptamine receptor 2A (Homo sapiens) (UniProt P28223). Briefly: Agonist activity at Homo sapiens (human) 5-HT2A receptor assessed as 5-HT-induced phosphoinositide hydrolysis by cell based assay. Also on record: scale not given: the % may be the effect or the level left.
The test system of series [21] is Mus musculus. Nature of the series: Anticonvulsant activity in ip dosed Mus musculus (mouse) assessed as inhibition of maximal electroshock-induced seizure after 0.25 hr. The series is classed as functional.
For series [22], the system named is Rattus norvegicus. Nature of the series: Anticonvulsant activity in po dosed Rattus norvegicus (rat) assessed as inhibition of maximal electroshock-induced seizure after 0.5 hr. It counts as functional.
The species entered for series [23] is Mus musculus. Nature of the series: Anticonvulsant activity in Mus musculus (mouse) assessed as inhibition of maximal electroshock-induced seizure. It counts as functional.
Series [24] is filed under the species Rattus norvegicus. Briefly: Anticonvulsant activity in Rattus norvegicus (rat) assessed as inhibition of maximal electroshock-induced seizure. It counts as functional.
The target of series [25] is T2, 5-hydroxytryptamine receptor 2C. Nature of the series: Agonist activity at Homo sapiens (human) 5-HT2C receptor.

Experimental findings from ChEMBL document CHEMBL3046768, “New antiepileptic agents: structureactivity relationships” (Med Chem Res, 2012) are described below.

Chain of 5-hydroxytryptamine receptor 2A (Homo sapiens) (P28223 whole entry): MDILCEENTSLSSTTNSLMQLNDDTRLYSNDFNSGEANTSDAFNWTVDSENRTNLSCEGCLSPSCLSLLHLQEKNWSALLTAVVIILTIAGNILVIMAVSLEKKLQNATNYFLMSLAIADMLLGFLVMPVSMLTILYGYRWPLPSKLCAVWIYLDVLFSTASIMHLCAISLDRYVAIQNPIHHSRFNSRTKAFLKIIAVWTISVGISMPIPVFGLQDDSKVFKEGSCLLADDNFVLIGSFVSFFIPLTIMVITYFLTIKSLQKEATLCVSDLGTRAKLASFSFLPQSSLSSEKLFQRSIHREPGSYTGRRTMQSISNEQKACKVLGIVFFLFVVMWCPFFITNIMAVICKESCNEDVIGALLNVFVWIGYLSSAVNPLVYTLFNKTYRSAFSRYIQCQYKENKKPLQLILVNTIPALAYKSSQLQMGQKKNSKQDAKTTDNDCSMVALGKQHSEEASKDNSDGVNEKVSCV

Turning to `CCOc1ccc2c(c1)c(C[C@H](C)N)c1n2CCC1`, the Activity in series [1] is 87%. Besides, the EC50 in [2] is 4 nM.

On to `COC(=O)C1C(=O)C=C(Nc2cc(C)on2)CC1C` (stereo not drawn), for which the ED50 in the series with Mus musculus [3] is 68.9 mg/kg. Moreover, the TD50 in series [4] is greater than 500 mg/kg. Besides, the “Ratio TD50/ED50” value in the series with Mus musculus [5] is reported as greater than 7.3. As for `O=C1CC2(CCCC2)C(=O)N1OCc1ccccc1`, in the series listed under Mus musculus [6], the PI is given as greater than 4.5. Take `Oc1ccccc1-c1nnc(Nc2cccc(F)c2)s1`: in the series with Mus musculus [3], the “inhibition (INH)” value is listed as 70%. In series [7], `C[C@H]1CN(c2ccc(C(F)(F)F)c3ccoc23)CCN1` had a bioavailability of 83%. Consider `O=C1NC(=O)C(c2ccccc2)(c2ccccc2)N1` [PHENYTOIN], for which the ED50 in the series with Rattus norvegicus [8] stood at 30 mg/kg. Turning to `CCOC(=O)C1C(=O)C=C(Nc2cc(C)on2)CC1C` (stereo not drawn), in the series on Rattus norvegicus [9], the “Ratio TD50/ED50” value is on record as greater than 49.6. In series [10], this molecule yielded a TD50 greater than 500 mg/kg. On the same counts, the results for `Cc1cc(NC2=CC(=O)C(C(=O)OC(C)(C)C)C(C)C2)no1` (stereo not drawn) are greater than 17.8 and greater than 500 mg/kg. `Cc1c2n(c3c(C)c(Cl)ccc13)C(C)NCC2` (stereo not drawn): the EC50 in series [11] worked out at 0.4 nM. As for `CCC1(c2ccccc2)C(=O)NC(=O)NC1=O` [PHENOBARBITAL], the values for the ED50 with Rattus norvegicus [12] and in the series with Mus musculus [13] were 9.1 mg/kg and 22 mg/kg, respectively.

Take `CCNc1nnc(-c2ccccc2O)s1`: the “inhibition (INH)” value with Mus musculus [3] is recorded as 90%. As to `O=C(NCc1ccccc1F)c1ccccn1` [PICOLINIC ACID FLUOROBENZYLAMIDE], the “Ratio TD50/ED50” value with Rattus norvegicus [14] is reported as less than 3.4. Besides, the ED50 in the series with Rattus norvegicus [15] is 14.7 mg/kg; in the series with Rattus norvegicus [16], greater than 50 mg/kg. For `CCCC(CCC)C(=O)[O-].[Na+]` [VALPROATE SODIUM], the “inhibition (INH)” value in the series on Mus musculus [17] was determined as 80%. Regarding `O=C1NCCCCC1(O)c1ccccc1` (stereo not drawn), the values for the ED50 with Mus musculus [18] and with Mus musculus [3] were 74 mg/kg and 63 mg/kg, respectively. As to `CC(=O)NC(C)C(=O)NCc1ccccc1` (stereo not drawn), the ED50 in the series with Mus musculus [13] was 77 mg/kg; in the series on Rattus norvegicus [19], 48 mg/kg. For the same molecule, the entries for the “Ratio TD50/ED50” value in the series on Mus musculus [5] and in the series with Rattus norvegicus [9] were 5.9 and greater than 20, respectively.

In the case of `CCc1cc2c(ccc3cnn(C[C@H](C)N)c32)o1`, the Activity in series [20] stood at 97%. On to `CC(=O)NN(C(=O)NCc1ccccc1)c1nccs1`, for which the ED50 in the series with Mus musculus [21] is 22 mg/kg; in the series on Rattus norvegicus [22] it was 6.2 mg/kg. For the same molecule, the “Ratio TD50/ED50” value with Mus musculus [5] is on record as 5.4; with Rattus norvegicus [9] it was greater than 40. In series [10], this molecule displayed a TD50 greater than 250 mg/kg.

With `Cc1noc(C)c1COc1cc(F)c(COC(=O)N2[C@H](C)CNC[C@@H]2C)c(F)c1`, in series [1], the Activity was 91%. For `CC1(C)C(C(=O)NC(N)=O)C1(C)C` [2,2,3,3-TETRAMETHYLCYCLOPROPANECARBONYLUREA], the ED50 was found to be 90 mg/kg in the series filed under Mus musculus [23] and 29 mg/kg in the series listed under Rattus norvegicus [24]. Turning to `Clc1ccc(-c2ccc(-c3cc4c5c(c3)[C@@H]3CNC[C@@H]3N5CCCS4)cc2)c(Cl)c1`, the EC50 in [25] worked out at 3 nM. Same read-out and setting: the same measure for `C1CC2CNCCN3C2C(C1)[C@H]1CCC[C@H]13` (stereo partly drawn): 76 nM.

In general, EC50 refers to the concentration giving half of the maximal effect. What is called ED50 is the dose that gives a 50% effect, or the effect in half of the subjects. In general, TD50 refers to the 50% point of the dose-response relation for the toxic effect studied. One may read the bioavailability as the share of a dose that reaches the circulation, judged against a reference dose that is usually intravenous.
